From patent US11944623B2, “Modulators of Kv3 channels to treat pain” (Autifony Therapeutics Limited, priority 2015, dated 2024)

Biological target: T1, Human Kv3.4 channels (Homo sapiens, UniProt Q03721)
T1 construct: expressed in transfected cells
T1 sequence (Q03721 1-635): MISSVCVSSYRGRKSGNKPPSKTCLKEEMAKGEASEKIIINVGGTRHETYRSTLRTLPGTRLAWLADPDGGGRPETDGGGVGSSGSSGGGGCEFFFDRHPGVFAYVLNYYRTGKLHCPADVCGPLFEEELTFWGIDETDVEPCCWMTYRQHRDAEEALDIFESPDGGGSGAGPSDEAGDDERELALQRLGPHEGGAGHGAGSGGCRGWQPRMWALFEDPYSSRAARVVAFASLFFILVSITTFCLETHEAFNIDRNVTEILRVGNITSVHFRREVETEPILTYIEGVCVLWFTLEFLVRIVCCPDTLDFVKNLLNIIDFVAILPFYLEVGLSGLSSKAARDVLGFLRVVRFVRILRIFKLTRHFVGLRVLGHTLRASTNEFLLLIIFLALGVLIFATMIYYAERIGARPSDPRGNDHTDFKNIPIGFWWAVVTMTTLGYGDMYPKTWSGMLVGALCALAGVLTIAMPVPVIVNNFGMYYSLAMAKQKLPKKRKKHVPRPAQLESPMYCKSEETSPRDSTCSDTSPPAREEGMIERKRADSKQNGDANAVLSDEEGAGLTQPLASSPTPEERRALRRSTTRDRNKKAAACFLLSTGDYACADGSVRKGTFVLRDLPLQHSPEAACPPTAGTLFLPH
Assay: Kv3.4 Assay 2 (QPatch, HEK293)
Assay type: cell-based
Parameters: dose or concentration left out as unconfirmed
Details: for reduction in peak Kv3.4 current: peak currents did not recover to baseline on washout
Protocol: Human Kv3.4 channels were stably expressed in a HEK293 cell line. Cells were used within 1-4 hours of cell preparation and internal and external physiological solutions were freshly prepared prior to the assay. Electrophysiological recordings were made using an automated patch clamp platform (QPatch, Sophion Biosciences). The extracellular solution contained 145 mM NaCl, 4 mM KCl, 2 mM CaCl2, 1 mM MgCl2, 10 mM HEPES and 10 mM glucose; the pH was adjusted to 7.4 with NaOH, and the osmolarity measured as 313 mOsm/L. A low potassium intracellular solution was used which contained 135.6 mM CsCl, 5.37 mM CaCl2, 1.75 mM MgCl2, 10 mM EGTA, 15.6 mM KOH, 4 mM Na2ATP and 10 mM HEPES; the pH was adjusted to 7.2 with CsOH, and the osmolarity measured as 303 mOsm/L.
The voltage dependence of inactivation of the homomeric hKv3.4 channels was tested using a protocol that consisted of a series of two square voltage pulses. The pulse one (P1=pre-pulse) was 1000 ms long and was immediately followed by a second pulse (P2=test pulse) which was 500 ms long. Pulse one varied between the holding potential of −60 mV to +40 mV and pulse two stepped from a holding potential of −60 to +40 mV before returning to the holding potential of −60 mV.
Steady-state voltage-activation and -inactivation curves were fitted with single Boltzmann function in which G/Gmax was obtained from normalized current amplitude and the V50 represent the half-activation or inactivation voltage.
The time constants of the inactivation phase of the hKv3.4 currents were derived from a mono (τ) or a double (τ1 and τ2) standard exponential fit to peak trace pulse from −80 mV to +60 mV.
The time-course of effect of the compounds against the hKv3.4 potassium channel was measured with repetitive voltage pulses from a holding potential of −60 mV, with pulses of 500 ms duration every 5 s to +40 mV.
One concentration (10 uM) of the test compounds was assessed during the activation, inactivation and peak pulse protocols. The protocol was applied with addition of physiological solution (control period), followed by 10 uM of the testing compound and a 10 mM of the standard blocker TEA.
Data were normalized using the baseline current control values as top of the curve (maximum current; 1.0) and the zero potassium current as the bottom of the curve (minimum current; 0.0).
Series resistance and quality of seals were monitored during the experiments. Analysis was performed using the Sophion QPatch Assay Software (version 5.2).
Stock solutions (10 mM) of the standard blockers TEA was prepared in fresh physiological solution prior to testing on the e-phys automated platform. The test compounds were prepared in 10 mM DMSO stock and then diluted 1 in 1000 in physiological solution.

SMILES	potentiation of the observed Kv3.4 current	shift in the voltage-dependence of activation of the Kv3.4 currents	reduction in peak Kv3.4 current [%]
CC[C@@]1(C)NC(=O)N(c2cnc(Oc3ccc(C)c(OC(F)(F)F)c3)nc2)C1=O [Compound 2, (5R)-5-ethyl-5-methyl-3-[2-({4-methyl-3-[(trifluoromethyl)oxy]phenyl}oxy)-5-pyrimidinyl]-2,4-imidazolidinedione]	did not potentiate	did not produce any notable shift	45.4±4
Cc1ccc(Oc2ncc(N3C(=O)NC(C)(C)C3=O)cn2)c2c1OCC21CC1 [Compound 1, 5,5-dimethyl-3-[2-(7-methylspiro[2H-benzofuran-3,1′-cyclopropane]-4-yl)oxypyrimidin-5-yl]imidazolidine-2,4-dione]	did not potentiate	did not produce any notable shift	40±5
CC[C@H]1NC(=O)N(c2ccc(Oc3ccc(C)c4c3C3(CC3)CO4)nc2)C1=O [Compound 4, (5R)-5-ethyl-3-[6-(7-methylspiro[2H-benzofuran-3,1′-cyclopropane]-4-yl)oxy-3-pyridyl]imidazolidine-2,4-dione]	did not potentiate	did not produce any notable shift	50.0±4
Cc1ccc(Oc2ccc(-n3c(C)n[nH]c3=O)cn2)c2c1OCC21CC1 [Compound 3, 5-methyl-4-{6-[(7-methylspiro[1-benzofuran-3,1′-cyclopropan]-4-yl)oxy]pyridin-3-yl}-2,4-dihydro-3H-1,2,4-triazol-3-one]	did not potentiate	did not produce any notable shift	36±3
